{"source": "ChEMBL document CHEMBL1148938", "about": "“Quinolone alkaloids with nitric oxide production inhibitory activity from Orixa japonica” (2004)", "key": {"[1]": {"system": "RAW264.7", "experiment": "Inhibition of LPS/IFN-gamma-induced NO production in mouse RAW264.7 cells at 30 uM after 18 hrs", "format": "functional, cell-based"}, "[2]": {"system": "RAW264.7", "experiment": "Inhibition of LPS/IFN-gamma-induced NO production in mouse RAW264.7 cells at 10 uM after 18 hrs", "format": "functional", "conditions": "RAW264.7, 18 h"}, "[3]": {"system": "RAW264.7", "experiment": "Inhibition of LPS/IFN-gamma-induced NO production in mouse RAW264.7 cells at 50 uM after 18 hrs", "format": "functional", "conditions": "RAW264.7, 18 h"}}, "note": "The source made the active and inactive calls. The rule behind the calls is not given here.", "data": [{"smiles": "COc1nc2c3c(ccc2c(OC)c1CC(=O)C(C)C)OCO3", "values": [{"measurement": "Activity", "setting": "[1]", "result": "inactive"}]}, {"smiles": "COc1c2ccoc2nc2c3c(ccc12)OCO3", "values": [{"measurement": "Activity", "setting": "[1]", "result": "inactive"}]}, {"smiles": "COc1nc2c3c(ccc2c(OC)c1C[C@H]1OC1(C)C)OCO3", "values": [{"measurement": "Activity", "setting": "[1]", "result": "inactive"}]}, {"smiles": "COc1c(CC(=O)C(C)C)c(=O)n(C)c2c(OC)cccc12", "note": "[ORIXALONE A]", "values": [{"measurement": "inhibition at 10 µM", "setting": "[2]", "result": 47.3, "unit": "%"}, {"measurement": "inhibition at 50 µM", "setting": "[3]", "result": 54.8, "unit": "%"}]}]}
